# Data: US7122666B2, “Heteroaryl-substituted pyrrole derivatives, their preparation and their therapeutic uses” (Sankyo Company, Limited, priority 1999, dated 2006)
# Where two headings read alike, the source gives them in different places.
# What was measured:
# [1] = test system: TNFα production in human whole blood; experiment: Inhibition of the production of TNFα in vitro in human whole blood (Test Examples 1 and 1′); assay type: cell-based; conditions: 6 hours at 37° C., plasma TNFα by ELISA
# Method: (§1) Inhibition of the Production of the Cytokines IL-1β and TNFα in Vitro in Human Whole Blood
# (§2) This test was performed according to the method of Hartman, et al. [D. A. Hartman, S. J. Ochalski and R. P. Carlson; The effects of anti-inflammatory and antiallergic drugs on cytokine release after stimulation of human whole blood by lipopolysaccharide and zymosan A: Inflamm. Res., 44, 269 (1995)].
# (§3) Peripheral blood samples were collected in the presence of heparin from healthy adult volunteers. 1000 μl of whole blood were added to an Eppendorf tube to which 2 μl of a dimethyl sulfoxide solution of the test compound had been added in advance, after which 10 μl of lipopolysaccharide (E. coli 026: B6 origin, Difco) were added as a stimulant (final concentration of said lipopolysaccharide: 10 μg/ml). This was mixed well and then incubated for 6 hours at 37° C. in the presence of 5% CO2. At the end of the incubation, the mixture was cooled to 4° C. to stop the reaction, followed immediately by centrifuging for 5 minutes at 14,000 rpm to separate and collect the supernatant plasma. The IL-1β and TNFα produced and released into the plasma were measured using a commercially available enzyme immunoassay (ELISA) kit [Cayman (IL-1β) and Genzyme (TNFα)]. The procedure was also repeated in the absence of test compound. The inhibitory effect [IC50 (μM)] on the production of IL-1β and TNFα was determined from the amounts of the cytokines produced in the presence and absence of the test compound.
# (§4) Inhibition of the Production of the Cytokines IL-1β and TNFα In Vitro in Human Whole Blood
# as §3, with “O26:” for “026:”, “plasma” for “plasma.”, “kits” for “kit”, “determined by the method of least squares” for “determined”
# [2] = test system: IL-1β production in human whole blood; experiment: Inhibition of the production of IL-1β in vitro in human whole blood (Test Examples 1 and 1′); assay type: cell-based; conditions: Table 8′, lipopolysaccharide 10 μg/ml, 6 hours at 37° C., plasma IL-1β by ELISA, least squares, read-out: Inhibitory Effect on IL-1β Production (in vitro) IC50
# Method: as §1, §2, §3, §4
# as §3, with “O26:” for “026:”, “plasma” for “plasma.”, “kits” for “kit”, “determined by the method of least squares” for “determined”
# [3] = Table 3, lipopolysaccharide 10 μg/ml, read-out: Inhibitory Effect on TNFα Production [IC50 (μM)]
# [4] = Table 7′, lipopolysaccharide 10 μg/ml, least squares, read-out: Inhibitory Effect on TNFα Production (in vitro) IC50
Compound,"IC50 [1, 3] [µM]",IC50 [2] [nM],"IC50 [1, 4] [µM]"
"Fc1ccc(-c2[nH]cc(C3=CC4CCCCN4CC3)c2-c2ccncc2)cc1 (racemic) [Example 87, (±)-2-(4-Fluorophenyl)-4-(1,3,4,6,7,9a-hexahydro-2H-quinolizin-8-yl)-3-(pyridin-4-yl)-1H-pyrrole]",0.31,,
"Fc1ccc(-c2[nH]cc(C3=CC4CCCN4CC3)c2-c2ccncc2)cc1F (racemic) [Example 92, (±)-2-(3,4-Difluorophenyl)-4-(1,2,3,5,6,8a-hexahydroindolizin-7-yl)-3-(pyridin-4-yl)-1H-pyrrole]",0.045,,
"Fc1ccc(-c2[nH]cc(C3=C[C@@H]4CCCN4CC3)c2-c2ccncc2)cc1 [Example 83, (−)-2-(4-Fluorophenyl)-4-(1,2,3,5,6,8a-hexahydroindolizin-7-yl)-3-(pyridin-4-yl)-1H-pyrrole]",0.026,,
"C=C1C[C@H]2C=C(c3c[nH]c(-c4ccc(F)cc4)c3-c3ccncc3)CCN2C1 [Example 23′, 2-(4-Fluorophenyl)-4-[(8aS)-2-methylidene-1,2,3,5,6,8a-hexahydroindolizin-7-yl]-3-(pyridin-4-yl)-1H-pyrrole]",,3.8,0.0037
"Fc1ccc(-c2ncn(C3CCNCC3)c2-c2ccncc2)cc1 [Compound B, reference compound]",1.73,,1.73
"Fc1ccc(-c2[nH]cc(C3=CC4CC5(CCCC5)CN4CC3)c2-c2ccncc2)cc1 (racemic) [Example 47′, (±)-4-[Cyclopentanespiro-2′-(1′,2′,3′,5′,6′,8a′-hexahydroindolizin)-7′-yl]-2-(4-fluorophenyl)-3-(pyridin-4-yl)-1H-pyrrole]",,33,0.01
"Fc1ccc(-c2[nH]cc(C3=CCN(CCc4ccccc4)CC3)c2-c2ccncc2)cc1 [Example 58, 2-(4-Fluorophenyl)-4-(1-phenethyl-1,2,3,6-tetrahydropyridin-4-yl)-3-(pyridin-4-yl)-1H-pyrrole]",0.089,,
"CCCN1CCC(c2c[nH]c(-c3ccc(F)cc3)c2-c2ccncc2)=CC1C (racemic) [Example 85, (±)-2-(4-Fluorophenyl)-4-(6-methyl-1-propyl-1,2,3,6-tetrahydropyridin-4-yl)-3-(pyridin-4-yl)-1H-pyrrole]",0.44,,
"Fc1ccc(-c2[nH]cc(C3=C[C@@H]4CCCN4CC34CC4)c2-c2ccncc2)cc1 [Example 19′, 4-[Cyclopropanespiro-6′-[(8a′S)-1′,2′,3′,5′,6′,8a′-hexahydroindolizin]-7′-yl]-2-(4-fluorophenyl)-3-(pyridin-4-yl)-1H-pyrrole]",,8.3,0.044
"Fc1ccc(-c2[nH]cc(C3=C[C@@H]4CC5(CN4CC3)OCCO5)c2-c2ccncc2)cc1 [Example 14′, 4-[(8aS)-2,2-Ethylenedioxy-1,2,3,5,6,8a-hexahydroindolizin-7-yl]-2-(4-fluorophenyl)-3-(pyridin-4-yl)-1H-pyrrole]",,9.2,0.004
CC1(C)C[C@H]2C=C(c3c[nH]c(-c4ccc(F)cc4)c3-c3ccncc3)CCN2C1 [Example 27′],,1.4,0.0038
"Fc1ccc(-c2[nH]cc(C3=CC4CCC(C3)N4)c2-c2ccncc2)cc1 (racemic) [Example 45, (±)-4-(8-Azabicyclo[3.2.1]oct-2-en-3-yl)-2-(4-fluorophenyl)-3-(pyridin-4-yl)-1H-pyrrole]",0.14,,
"Fc1ccc(-c2[nH]c(C3CCNCC3)cc2-c2ccncc2)cc1 [Compound A, reference compound]",1.9,,1.9
"CCCN1CC=C(c2c[nH]c(-c3ccc(F)cc3)c2-c2ccncc2)CC1C (racemic) [Example 86, (±)-2-(4-Fluorophenyl)-4-(2-methyl-1-propyl-1,2,3,6-tetrahydropyridin-4-yl)-3-(pyridin-4-yl)-1H-pyrrole]",0.29,,
"CS[C@H]1C[C@H]2C=C(c3c[nH]c(-c4ccc(F)cc4)c3-c3ccncc3)CCN2C1 [Example 29′, 2-(4-Fluorophenyl)-4-[(2S,8aS)-2-methylthio-1,2,3,5,6,8a-hexahydroindolizin-7-yl]-3-(pyridin-4-yl)-1H-pyrrole]",,1,0.0036
"FC(F)(F)c1cccc(-c2[nH]cc(C3=CC4CCCN4CC3)c2-c2ccncc2)c1 (racemic) [Example 94, (±)-4-(1,2,3,5,6,8a-Hexahydroindolizin-7-yl)-3-(pyridin-4-yl)-2-(3-trifluoromethylphenyl)-1H-pyrrole]",0.031,,
"CCCCS[C@H]1C[C@H]2C=C(c3c[nH]c(-c4ccc(F)cc4)c3-c3ccncc3)CCN2C1 [Example 34′, 4-[(2S,8aS)-2-Butylthio-1,2,3,5,6,8a-hexahydroindolizin-7-yl)-2-(4-fluorophenyl)-3-(pyridin-4yl)-1H-pyrrole]",,49,0.046
"O[C@@H]1C[C@H]2C=C(c3c[nH]c(-c4ccc(F)cc4)c3-c3ccncc3)CCN2C1 [Example 4′, 2-(4-Fluorophenyl)-4-[(2R,8aS)-2-hydroxy-1,2,3,5,6,8a-hexahydroindolizin-7-yl]-3-(pyridin-4-yl)-1H-pyrrole]",,41,0.054
"Fc1ccc(-c2[nH]cc(C3=CC4CCCN4CC3)c2-c2ccncc2)cc1 (racemic) [Example 60, (±)-2-(4-Fluorophenyl)-4-(1,2,3,5,6,8a-hexahydroindolizin-7-yl)-3-(pyridin-4-yl)-1H-pyrrole]",0.047,,
"CO[C@@H]1C[C@H]2C=C(c3c[nH]c(-c4ccc(F)cc4)c3-c3ccncc3)CCN2C1 [Example 2′, 2-(4-Fluorophenyl)-4-[(2R,8aS)-2-methoxy-1,2,3,5,6,8a-hexahydroindolizin-7-yl]-3-(pyridin-4-yl)-1H-pyrrole]",,31,0.062
"Fc1ccc(-c2[nH]cc(C3=C[C@@H]4C[C@H](Cl)CN4CC3)c2-c2ccncc2)cc1 [Example 6′, 4-[(2S,8aS)-2-Chloro-1,2,3,5,6,8a-hexahydroindolizin-7-yl]-2-(4-fluorophenyl)-3-(pyridin-4-yl)-1H-pyrrole]",,,0.027
"CCS[C@H]1C[C@H]2C=C(c3c[nH]c(-c4ccc(F)cc4)c3-c3ccncc3)CCN2C1 [Example 36′, 4-[(2S,8aS)-2-Ethylthio-1,2,3,5,6,8a-hexahydroindolizin-7-yl]-2-(4-fluorophenyl)-3-(pyridin-4-yl)-1H-pyrrole]",,26,0.018
"CO[C@H]1C[C@H]2C=C(c3c[nH]c(-c4ccc(F)cc4)c3-c3ccncc3)CCN2C1 [Example 21′, 2-(4-Fluorophenyl)-4-[(2S,8aS)-2-methoxy-1,2,3,5,6,8a-hexahydroindolizin-7-yl)-3-(pyridin-4-yl)-1H-pyrrole]",,18,0.046
"CC=C1C[C@H]2C=C(c3c[nH]c(-c4ccc(F)cc4)c3-c3ccncc3)CCN2C1 [Example 37′, 4-[(8aS)-2-Ethylidene-1,2,3,5,6,8a-hexahydroindolizin-7-yl]-2-(4-fluorophenyl)-3-(pyridin-4-yl)-1H-pyrrole]",,58,0.01
